Test results taken from patent publication US11066425B1, “Oxo-substituted compound” (SUMITOMO DAINIPPON PHARMA CO., LTD., priority 2018, dated 2021).
Structures can show the parent of a compound that is named as a salt.

Test system: β-lactamase producing bacteria
Test: Test Example 1: MIC of meropenem (MEPM) combined with test compound at fixed 4 μg/mL, broth microdilution
Type: cell-based
Details: relative to MEPM alone
Method: Test Example 1: Evaluation of Minimum Inhibitory Concentration (MIC) of MEPM Against β-Lactamase Producing Bacteria
To evaluate the β-lactamase inhibitory activity of test compounds, the effect of combination of a test compound and a β-lactam agent against β-lactamase producing bacteria was evaluated. Meropenem (MEPM) was used as a β-lactam antimicrobial agent. The minimum inhibitory concentration (MIC) of MEPM against β-lactamase producing bacteria when a test compound was added at a fixed concentration (4 μg/mL) was measured by broth microdilution method (common ratio: 2). MIC of MEPM decreasing to less than 1/32 in combination with a test compound is indicated by A, decreasing from 1/32 to 1/16 is indicated by B, decreasing from ⅛ to ¼ is indicated by C, and decreasing to ½ or others are indicated by D. “-” represents untested cases.

| SMILES | Decrease of MIC of MEPM in combination with a test compound, K. pneumoniae ATCC BAA-2344 (KPC) | Decrease of MIC of MEPM in combination with a test compound, K. pneumoniae ATCC BAA-2524 (OXA-48) | Decrease of MIC of MEPM in combination with a test compound, E. coli ATCC BAA-2340 (KPC) |
| --- | --- | --- | --- |
| CCN1CCN(C(=O)N[C@@H](C(=O)N2CC(Oc3ccc4c(c3C(=O)O)O[B-](O)(O)CC4)C2)c2ccccc2)C(=O)C1=O [Example 30, 8-[(1-{(2R)-2-[(4-ethyl-2,3-dioxopiperazine-1-carbonyl)amino]-2-phenylacetyl}azetidin-3-yl)oxy]-4,4-dihydroxy-5-oxa-4-boranuidabicyclo[4.4.0]deca-l(6),7,9-triene-7-carboxylic acid disodium salt] | A (MIC of MEPM decreasing to less than 1/32 in combination with a test compound is indicated by A) | B (decreasing from 1/32 to 1/16 is indicated by B) | – |
| NCCc1cn(CC(=O)N2CC(Oc3ccc4c(c3C(=O)O)O[B-](O)(O)CC4)C2)cn1 [Example 33, 8-[(1-{[4-(2-aminoethyl)-1H-imidazol-1-yl]acetyl}azetidin-3-yl)oxy]-4,4-dihydroxy-5-oxa-4-boranuidabicyclo[4.4.0]deca-l(6),7,9-triene-7-carboxylic acid disodium salt] | A (MIC of MEPM decreasing to less than 1/32 in combination with a test compound is indicated by A) | B (decreasing from 1/32 to 1/16 is indicated by B) | – |
| N[C@H](C(=O)N1CC(Oc2ccc3c(c2C(=O)O)O[B-](O)(O)CC3)C1)c1ccccc1 [Example 15, 8-({1-[(2S)-2-amino-2-phenylacetyl]azetidin-3-yl}oxy)-4,4-dihydroxy-5-oxa-4-boranuidabicyclo[4.4.0]deca-l(6),7,9-triene-7-carboxylic acid disodium salt] | A (MIC of MEPM decreasing to less than 1/32 in combination with a test compound is indicated by A) | B (decreasing from 1/32 to 1/16 is indicated by B) | A (MIC of MEPM decreasing to less than 1/32 in combination with a test compound is indicated by A) |
| O=C(O)c1c(OC2CN(C(=O)Cn3cncn3)C2)ccc2c1O[B-](O)(O)CC2 [Example 18, 4,4-dihydroxy-8-({1-[(1H-1,2,4-triazol-1-yl)acetyl]azetidin-3-yl}oxy)-5-oxa-4-boranuidabicyclo[4.4.0]deca-l(6),7,9-triene-7-carboxylic acid disodium salt] | A (MIC of MEPM decreasing to less than 1/32 in combination with a test compound is indicated by A) | B (decreasing from 1/32 to 1/16 is indicated by B) | A (MIC of MEPM decreasing to less than 1/32 in combination with a test compound is indicated by A) |
| N[C@H](Cc1ccc(O)cc1)C(=O)N1CC(Oc2ccc3c(c2C(=O)O)O[B-](O)(O)CC3)C1 [Example 26, 4,4-dihydroxy-8-[(1-D-tyrosylazetidin-3-yl)oxy]-5-oxa-4-boranuidabicyclo[4.4.0]deca-l(6),7,9-triene-7-carboxylic acid disodium salt] | A (MIC of MEPM decreasing to less than 1/32 in combination with a test compound is indicated by A) | A (MIC of MEPM decreasing to less than 1/32 in combination with a test compound is indicated by A) | A (MIC of MEPM decreasing to less than 1/32 in combination with a test compound is indicated by A) |
| N[C@H](Cc1ccccc1)C(=O)N1CC(Oc2ccc3c(c2C(=O)O)O[B-](O)(O)CC3)C1 [Example 25, 4,4-dihydroxy-8-[(1-D-phenylalanylazetidin-3-yl)oxy]-5-oxa-4-boranuidabicyclo[4.4.0]deca-l(6),7,9-triene-7-carboxylic acid disodium salt] | A (MIC of MEPM decreasing to less than 1/32 in combination with a test compound is indicated by A) | B (decreasing from 1/32 to 1/16 is indicated by B) | A (MIC of MEPM decreasing to less than 1/32 in combination with a test compound is indicated by A) |
| O=C(O)c1c(OC2CN(C(=O)[C@H]3CCCN3)C2)ccc2c1O[B-](O)(O)CC2 [Example 31, 4,4-dihydroxy-8-[(1-D-prolylazetidin-3-yl)oxy]-5-oxa-4-boranuidabicyclo[4.4.0]deca-l(6),7,9-triene-7-carboxylic acid disodium salt] | A (MIC of MEPM decreasing to less than 1/32 in combination with a test compound is indicated by A) | B (decreasing from 1/32 to 1/16 is indicated by B) | – |
| NC(C(=O)N1CC(Oc2ccc3c(c2C(=O)O)O[B-](O)(O)CC3)C1)c1cnc[nH]1 (stereo not drawn) [Example 19, 8-({1-[amino(1H-imidazol-5-yl)acetyl]azetidin-3-yl}oxy)-4,4-dihydroxy-5-oxa-4-boranuidabicyclo[4.4.0]deca-l(6),7,9-triene-7-carboxylic acid disodium salt] | A (MIC of MEPM decreasing to less than 1/32 in combination with a test compound is indicated by A) | B (decreasing from 1/32 to 1/16 is indicated by B) | A (MIC of MEPM decreasing to less than 1/32 in combination with a test compound is indicated by A) |
| O=C(O)c1c(OC2CN(C(=O)c3cccnc3)C2)ccc2c1O[B-](O)(O)CC2 [Example 12, 4,4-dihydroxy-8-{[1-(pyridine-3-carbonyl)azetidin-3-yl]oxy}-5-oxa-4-boranuidabicyclo[4.4.0]deca-l(6),7,9-triene-7-carboxylic acid disodium salt] | A (MIC of MEPM decreasing to less than 1/32 in combination with a test compound is indicated by A) | B (decreasing from 1/32 to 1/16 is indicated by B) | A (MIC of MEPM decreasing to less than 1/32 in combination with a test compound is indicated by A) |
| CSCC(=O)N1CC(Oc2ccc3c(c2C(=O)O)O[B-](O)(O)CC3)C1 [Example 7, 4,4-dihydroxy-8-({1-[(methylsulfanyl)acetyl]azetidin-3-yl}oxy)-5-oxa-4-boranuidabicyclo[4.4.0]deca-l(6),7,9-triene-7-carboxylic acid disodium salt] | A (MIC of MEPM decreasing to less than 1/32 in combination with a test compound is indicated by A) | B (decreasing from 1/32 to 1/16 is indicated by B) | A (MIC of MEPM decreasing to less than 1/32 in combination with a test compound is indicated by A) |
| N[C@H](Cc1cnc[nH]1)C(=O)N1CC(Oc2ccc3c(c2C(=O)O)O[B-](O)(O)CC3)C1 [Example 27, 8-[(1-D-histidylazetidin-3-yl)oxy]-4,4-dihydroxy-5-oxa-4-boranuidabicyclo[4.4.0]deca-l(6),7,9-triene-7-carboxylic acid disodium salt] | A (MIC of MEPM decreasing to less than 1/32 in combination with a test compound is indicated by A) | B (decreasing from 1/32 to 1/16 is indicated by B) | – |
| O=C(O)c1c(OC2CN(C(=O)[C@@H]3CCCN3)C2)ccc2c1O[B-](O)(O)CC2 [Example 32, 4,4-dihydroxy-8-[(1-L-prolylazetidin-3-yl)oxy]-5-oxa-4-boranuidabicyclo[4.4.0]deca-l(6),7,9-triene-7-carboxylic acid disodium salt] | A (MIC of MEPM decreasing to less than 1/32 in combination with a test compound is indicated by A) | B (decreasing from 1/32 to 1/16 is indicated by B) | – |
| O=C(O)c1c(OC2CN(C(=O)c3ccccc3)C2)ccc2c1O[B-](O)(O)CC2 [Example 11, 8-[(1-benzoylazetidin-3-yl)oxy]-4,4-dihydroxy-5-oxa-4-boranuidabicyclo[4.4.0]deca-l(6),7,9-triene-7-carboxylic acid disodium salt] | B (decreasing from 1/32 to 1/16 is indicated by B) | B (decreasing from 1/32 to 1/16 is indicated by B) | A (MIC of MEPM decreasing to less than 1/32 in combination with a test compound is indicated by A) |
| O=C(O)c1c(OC2CN(C(=O)Cn3cnnn3)C2)ccc2c1O[B-](O)(O)CC2 [Example 23, 4,4-dihydroxy-8-({1-[(1H-tetrazol-1-yl)acetyl]azetidin-3-yl}oxy)-5-oxa-4-boranuidabicyclo[4.4.0]deca-l(6),7,9-triene-7-carboxylic acid disodium salt] | A (MIC of MEPM decreasing to less than 1/32 in combination with a test compound is indicated by A) | B (decreasing from 1/32 to 1/16 is indicated by B) | – |
